According to patent US20190002988A1, “METHOD OF USING A RET FUSION GENE AS A BIOMARKER TO SELECT NON SMALL CELL LUNG CANCER (NSCLC) AND THYROID CANCER PATIENTS FOR A CANCER TREATMENT” (Boehringer Ingelheim International GmbH, priority 2015, published 2019):

What was measured:
[1] = tested on: EGFR and ALK wild-type advanced NSCLC with CCDC6-RET fusion gene; test: Phase I case study, docetaxel plus nintedanib in a patient with CCDC6-RET fusion NSCLC; assay type: in vivo, human; conditions: one patient
Excerpt: The present study is a case study of long-term efficacy of docetaxel plus nintedanib (BIBF 1120; 3-Z-[1-(4-(N-((4-methyl-piperazin-1-yl)-methylcarbonyl)-N-methyl-amino)-anilino)-1-phenyl-methylene]-6-methoxycarbonyl-2-indolinone) over 33 months in a never smoking person with EGFR and ALK wild-type non-small cell lung cancer NSCLC.
The present case was a never smoking person with EGFR and ALK wild-type advanced NSCLC. After failure of first-line platinum-based chemotherapy, the patient was enrolled in a phase I dose-escalation study of nintedanib combined with docetaxel for Japanese patients with advanced NSCLC on June, 2010, with oral administration of nintedanib 150 mg twice daily plus docetaxel 75 mg/m^2 every 3 weeks (Okamoto I, Kaneda H, Satoh T et al. Phase I safety, pharmacokinetic, and biomarker study of BIBF 1120, an oral triple tyrosine kinase inhibitor in patients with advanced solid tumors. Mol Cancer Ther 2010; 9: 2825-2833.). […] A total of 48 treatment cycles (26 cycles of therapy with nintedanib alone) had been administered over 33 months until disease progression on March, 2013 (FIG. 1). To identify mutations which are highly susceptible to therapy with nintedanib, next-generation sequencing panels were applied that cover both mutational hotspots in 22 genes related to lung and colon tumorigenesis using DNA (FIG. 4) as well as 72 major variants of ALK, RET, ROS1, and NTRK1 fusion transcripts using RNA extracted from non-small lung tissues obtained by transbronchial biopsy (FIG. 5). Multiplex genetic testing has identified CCDC6-RET fusion gene in tissue specimens for lung cancer diagnosis (FIG. 2), and no other actionable mutations were identified.

[2] = tested on: tumor vessel density; test: tumor vessel density; conditions: in vivo
[3] = tested on: vascular endothelial growth factor receptors (VEGFRs); test: preclinical studies, inhibition of VEGFRs; assay type: biochemical
[4] = tested on: platelet-derived growth factor receptors (PDGFRs); test: preclinical studies, inhibition of PDGFRs; assay type: biochemical
[5] = tested on: fibroblast growth factor receptors (FGFRs); test: preclinical studies, inhibition of FGFRs; assay type: biochemical
[6] = tested on: advanced NSCLC; conditions: combination with docetaxel; predefined patients with adenocarcinoma tumor histology; Reck et al. 2014; cited from earlier work
[7] = tested on: endothelial- and smooth muscle cells and pericytes; test: signalling in endothelial- and smooth muscle cells and pericytes; assay type: cell-based
[8] = target: VEGFR2 (Homo sapiens, UniProt P35968); conditions: in vitro; Hilberg et al. 2008; cited from earlier work
[9] = tested on: xenograft models of human solid tumors; conditions: Hilberg et al. 2008; cited from earlier work
[10] = preclinical studies, oral bioavailability; assay type: in vivo

Sequence of VEGFR2 (P35968 20-1356, species assumed): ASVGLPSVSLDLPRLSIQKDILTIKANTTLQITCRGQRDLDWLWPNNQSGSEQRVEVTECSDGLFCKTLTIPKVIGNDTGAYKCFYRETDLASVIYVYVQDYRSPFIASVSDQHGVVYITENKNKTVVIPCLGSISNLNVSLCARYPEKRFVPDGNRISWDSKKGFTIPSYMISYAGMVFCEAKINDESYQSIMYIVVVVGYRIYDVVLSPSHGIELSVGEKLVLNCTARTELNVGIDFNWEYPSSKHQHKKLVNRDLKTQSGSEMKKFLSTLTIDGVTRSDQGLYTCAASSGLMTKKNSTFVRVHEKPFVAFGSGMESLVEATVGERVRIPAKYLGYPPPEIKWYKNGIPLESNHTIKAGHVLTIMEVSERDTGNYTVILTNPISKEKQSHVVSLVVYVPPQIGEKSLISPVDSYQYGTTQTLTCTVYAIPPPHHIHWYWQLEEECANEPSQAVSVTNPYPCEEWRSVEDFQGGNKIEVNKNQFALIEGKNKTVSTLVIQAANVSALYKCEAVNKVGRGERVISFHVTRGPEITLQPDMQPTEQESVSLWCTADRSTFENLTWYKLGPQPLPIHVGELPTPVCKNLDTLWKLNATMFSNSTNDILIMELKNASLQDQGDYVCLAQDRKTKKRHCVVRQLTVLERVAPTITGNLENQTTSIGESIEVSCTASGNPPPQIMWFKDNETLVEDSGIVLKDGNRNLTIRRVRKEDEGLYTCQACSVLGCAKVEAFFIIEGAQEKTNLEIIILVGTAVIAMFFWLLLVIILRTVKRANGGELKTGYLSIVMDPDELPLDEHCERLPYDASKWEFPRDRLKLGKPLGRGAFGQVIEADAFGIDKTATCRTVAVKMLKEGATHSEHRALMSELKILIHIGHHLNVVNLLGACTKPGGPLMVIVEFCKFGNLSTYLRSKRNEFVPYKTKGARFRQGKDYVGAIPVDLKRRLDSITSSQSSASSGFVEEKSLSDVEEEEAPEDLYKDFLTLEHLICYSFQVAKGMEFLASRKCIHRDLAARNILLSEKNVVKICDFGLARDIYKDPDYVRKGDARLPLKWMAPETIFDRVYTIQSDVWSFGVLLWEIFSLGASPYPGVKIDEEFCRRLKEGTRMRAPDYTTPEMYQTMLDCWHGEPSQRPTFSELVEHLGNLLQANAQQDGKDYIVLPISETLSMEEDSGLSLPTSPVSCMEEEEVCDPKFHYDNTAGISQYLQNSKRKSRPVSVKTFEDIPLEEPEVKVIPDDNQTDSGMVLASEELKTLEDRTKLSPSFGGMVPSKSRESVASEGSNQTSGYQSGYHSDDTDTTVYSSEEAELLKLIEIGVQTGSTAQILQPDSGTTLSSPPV

SMILES	adverse events leading to discontinuation ([1]; docetaxel discontinued after 22 cycles)	tumor vessel density [2]	treatment time until disease progression ([1]; 48 treatment cycles, 26 of them nintedanib alone after docetaxel was stopped) [months]	response ([1]; nintedanib 150 mg twice daily plus docetaxel 75 mg/m^2 every 3 weeks)	inhibition of VEGFRs [3]	inhibition of PDGFRs [4]	inhibition of FGFRs [5]	overall survival compared with docetaxel alone [6]	signalling in endothelial- and smooth muscle cells and pericytes [7]	blockade of VEGFR2 [8]	tumor growth [9]	oral bioavailability [10]
CC(=O)O[C@@]12CO[C@@H]1C[C@H](O)[C@@]1(C)C(=O)[C@H](O)C3=C(C)[C@@H](OC(=O)[C@H](O)[C@@H](NC(=O)OC(C)(C)C)c4ccccc4)C[C@@](O)([C@@H](OC(=O)c4ccccc4)[C@H]21)C3(C)C [docetaxel, reference compound]	lower extremity edema and fatigue	–	–	–	–	–	–	–	–	–	–	–
COC(=O)c1ccc2c(c1)NC(=O)/C2=C(\Nc1ccc(N(C)C(=O)CN2CCN(C)CC2)cc1)c1ccccc1 [nintedanib, 3-Z-[1-(4-(N-((4-methyl-piperazin-1-yl)-methylcarbonyl)-N-methyl-amino)-anilino)-1-phenyl-methylene]-6-methoxycarbonyl-2-indolinone]	–	reduces tumor vessel density	33	radiographic response	highly potent	highly potent	highly potent	significantly and clinically meaningful improved overall survival	inhibits signalling	sustained blockade	delay or arrest of tumor growth	orally bioavailable
